For four molecules, MIC results are on record in patent US5283271A, “3,5-diphenyl or substituted 3,5-diphenyl-1-hydroxy-1,2-dihydroimidazole-2-thiones” (Olin Corporation, priority 1992, dated 1994).

SMILES strings stand for the structures. In brackets after ≈: the same amount, converted by molar mass. Where a name gives a salt, the structure may show the parent alone. Read-outs that look alike come from different tables or passages of the source.

Holding throughout (assay type): cell-based
One test has as its system Candida albicans. The experiment in a line: Minimum Inhibitory Concentration (MIC), Candida albicans. Particulars: 120 h. The protocol: (§1) Determination of the Minimum Inhibitory Concentrations (MIC's) for the Compounds Prepared in Part A
(§2) Solutions of the experimental compounds in dimethyl sulfoxide and an aqueous solution of sodium pyrithione were serially diluted in nutrient broth (Tryptic Soy Broth for bacteria and Sabouraud Dextrose Broth for fungi) in microtiter plates. Equal volumes of a broth supension of bacteria (10^6 CFU/ml) or fungi (10^5 cells or spores/ml) were added to each dilution, and the plates were incubated at 37° C. (bacteria and yeast) or 28° C. (molds). Bacteria, yeast and molds were incubated two, five and seven days respectively before determining the highest inhibitory dilution.

The next test relates to Aspergillins niger. The experiment in a line: Minimum Inhibitory Concentration (MIC), Aspergillins niger. The following applies: 168 h. On the procedure: as §1, §2
In a further test the test system is E. Coli. The experiment in a line: Minimum Inhibitory Concentration (MIC), E. Coli. Particulars: Escherichia coli, 48 h, Tryptic Soy Broth, 37° C., two days. On the procedure: as §1, §2
The next test concerns Aureobasidium pullulans. The experiment in a line: Minimum Inhibitory Concentration (MIC), Aureobasidium pullulans. On the procedure: as §1, §2
In a further test the test system is Fusarium. The experiment in a line: Minimum Inhibitory Concentration (MIC), Fusarium. Particulars: 168 h, Sabouraud Dextrose Broth, 28° C., seven days (molds). On the procedure: as §1, §2
In the next test the test system is S. aureus. The experiment in a line: Minimum Inhibitory Concentration (MIC), S. aureus. The following applies: Staphylococcus aureus, 48 h, Tryptic Soy Broth, 37° C., two days. On the procedure: as §1, §2
Where [1] appears, read: Sabouraud Dextrose Broth, 37° C., five days (yeast), read-out: MIC.
The mark [2] stands for this setting: Aspergillins niger, Sabouraud Dextrose Broth, 28° C., seven days (molds), read-out: MIC.
Setting [3] is: Sabouraud Dextrose Broth, read-out: MIC.

One may read the MIC as the lowest concentration found to suppress growth. On to `COc1ccc(-c2cn(-c3ccccc3)c(=S)n2O)cc1` [Compound 3, 5-(p-Methoxyphenyl)-3-phenyl-1-hydroxy-1,2-dihydroimidazole-2-thione], for which the MIC came to 2 µg/mL (≈ 6.7 µM) with Candida albicans (setting [1]); 512 µg/mL (≈ 1720 µM) in the test with Aspergillins niger (setting [2]); 32 µg/mL (≈ 107 µM) with E. Coli; 16 µg/mL (≈ 53.6 µM) with Aureobasidium pullulans (setting [3]); 512 µg/mL (≈ 1720 µM) in the test with Fusarium; 32 µg/mL (≈ 107 µM) in the test with S. aureus.

`COc1ccc(-n2cc(-c3ccccc3)n(O)c2=S)cc1` [Compound 2, 3-(p-methoxyphenyl)-5-phenyl-1-hydroxy-1,2-dihydroimidazole-2-thione]: the minimal inhibitory concentration (MIC) with Candida albicans (setting [1]) worked out at 4 µg/mL (≈ 13.4 µM); with Aspergillins niger (setting [2]), 64 µg/mL (≈ 215 µM); against E. Coli, 32 µg/mL (≈ 107 µM); with Aureobasidium pullulans (setting [3]) it was 8 µg/mL (≈ 26.8 µM); against Fusarium, 1020 µg/mL (≈ 3430 µM); in the test on S. aureus, 2050 µg/mL (≈ 6860 µM).

For the molecule `On1c(-c2ccccc2)cn(-c2ccccc2)c1=S` [Compound 1, 3,5-diphenyl-1-hydroxy-1,2-dihydroimidazole-2-thione], the MIC in the test with Candida albicans (setting [1]) is 2 µg/mL (≈ 7.45 µM); in the test with Aspergillins niger (setting [2]) it was 8 µg/mL (≈ 29.8 µM); against E. Coli it was 64 µg/mL (≈ 239 µM); with Aureobasidium pullulans (setting [3]), 2 µg/mL (≈ 7.45 µM); against Fusarium, 16 µg/mL (≈ 59.6 µM); against S. aureus, 256 µg/mL (≈ 954 µM).

Take `[O-][n+]1ccccc1S` [Pyrithione, sodium salt, sodium pyrithione, reference compound]: the minimum inhibitory concentration (MIC) against Candida albicans is 4 to 16 µg/mL; with Aspergillins niger, 32 to 128 µg/mL; in the test with E. Coli, 8 to 32 µg/mL; with Aureobasidium pullulans it was 2 to 32 µg/mL; against Fusarium, 64 to 128 µg/mL; with S. aureus it was 4 to 8 µg/mL.
